Laboratory results published in patent US8758782B2, “Excipient preservatives and pharmaceutical compositions comprised thereof” (Galderma Research & Development, priority 2007, dated 2014).

Assays:
[1] = system: Aspergillus niger, reference ATCC 16404; assay: Preservative Efficacy Test (PET), Aspergillus niger; format: cell-based; set-up: key to Moulds, Aspergillus Niger: −: No European pharmacopoeia criterion or USP criterion is met; +: for the coli: the USP criteria are met; ++: the European pharmacopoeia criteria A are met; details: for Moulds, Aspergillus Niger: additive in standard emulsion at its given % (EDTA 0.15, citric acid 2, sodium ascorbate 2, tocopherol 0.05, BHT 1, propyl gallate 0.1, ascorbyl palmitate 1)
From the text: (§1) A particular problem that must be solved by the invention is that of effectively protecting a pharmaceutical topical composition while at the same time meeting the criteria required by the European and U.S. pharmacopoeias. This is because, since the purpose of the pharmaceutical composition is to become a pharmaceutical product with a marketing authorization, it is imperative for the composition according to the invention to meet these criteria. In order to verify this point and to determine the antimicrobial action of the various mixtures of excipients according to the invention, a test protocol, known as the PET (Preservative Efficacy Test), exists. The PET comprises artificially inoculating the compositions with a known number of microorganisms, and then determining the decrease in the latter in the compositions tested, at given times. The protocol of this test is set up in order to abide by the recommendations of the European and U.S. pharmacopoeias. […] The mixture of excipients as preservatives, described herein, should therefore meet the criteria of these pharmacopoeias in the PET. This test comprises artificially contaminating aliquots of formulation by means of a calibrated inoculum of specific microorganisms and incubating the same at precise temperatures. Samples are taken from the contaminated aliquots at given time intervals in order to count the microorganisms. Fungi: • Candida albicans, reference ATCC 10231; NCPF 3179; IP 48.72. • Aspergillus niger, reference ATCC 16404; IMI 149007; IP 1431.83. Fungi: • Candida albicans, reference ATCC 10231. • Aspergillus niger, reference ATCC 16404.

[2] = system: Escherichia coli, reference ATCC 8739; assay: Preservative Efficacy Test (PET), Escherichia coli; format: cell-based; set-up: key to Gram− bacterium, Esoherichia coli: −: No European pharmacopoeia criterion or USP criterion is met; +: for the coli: the USP criteria are met; ++: the European pharmacopoeia criteria A are met; details: additive in standard emulsion
From the text: (§2) A particular problem that must be solved by the invention is that of effectively protecting a pharmaceutical topical composition while at the same time meeting the criteria required by the European and U.S. pharmacopoeias. This is because, since the purpose of the pharmaceutical composition is to become a pharmaceutical product with a marketing authorization, it is imperative for the composition according to the invention to meet these criteria. In order to verify this point and to determine the antimicrobial action of the various mixtures of excipients according to the invention, a test protocol, known as the PET (Preservative Efficacy Test), exists. The PET comprises artificially inoculating the compositions with a known number of microorganisms, and then determining the decrease in the latter in the compositions tested, at given times. The protocol of this test is set up in order to abide by the recommendations of the European and U.S. pharmacopoeias. […] The mixture of excipients as preservatives, described herein, should therefore meet the criteria of these pharmacopoeias in the PET. This test comprises artificially contaminating aliquots of formulation by means of a calibrated inoculum of specific microorganisms and incubating the same at precise temperatures. Samples are taken from the contaminated aliquots at given time intervals in order to count the microorganisms. Bacteria: • Escherichia coli, reference ATCC 8739. • Pseudomonas aeruginosa, reference ATCC 9027. • Staphylococcus aureus, reference ATCC 6538.

[3] = system: Staphylococcus aureus, reference ATCC 6538; assay: Preservative Efficacy Test (PET), Staphylococcus aureus; format: cell-based; set-up: key to Gram+ bacterium, Staphylococcus aureus: −: No European pharmacopoeia criterion or USP criterion is met; +: for the coli: the USP criteria are met; ++: the European pharmacopoeia criteria A are met; details: additive in standard emulsion
From the text: as §2, with “Bacteria: • Pseudomonas aeruginosa, reference ATCC 9027; NCIMB 8626; CIP 82.118. • Staphylococcus aureus, reference ATCC 6538; NCTC 10788; NCIMB 9518; CIP 4.83. Bacteria: • Escherichia coli,” for “Bacteria: • Escherichia coli,”

[4] = system: Candida albicans, reference ATCC 10231; assay: Preservative Efficacy Test (PET), Candida albicans; format: cell-based; set-up: key to Yeast, Candida albicans: −: No European pharmacopoeia criterion or USP criterion is met; +: for the coli: the USP criteria are met; ++: the European pharmacopoeia criteria A are met; details: additive in standard emulsion
From the text: as §1

[5] = system: Pseudomonas aeruginosa, reference ATCC 9027; assay: Preservative Efficacy Test (PET), Pseudomonas aeruginosa; format: cell-based; set-up: key to Gram− bacterium, Pseudomonas aeruginosa: −: No European pharmacopoeia criterion or USP criterion is met; +: for the coli: the USP criteria are met; ++: the European pharmacopoeia criteria A are met; details: additive in standard emulsion
From the text: as §2, with “Bacteria: • Pseudomonas aeruginosa, reference ATCC 9027; NCIMB 8626; CIP 82.118. • Staphylococcus aureus, reference ATCC 6538; NCTC 10788; NCIMB 9518; CIP 4.83. Bacteria: • Escherichia coli,” for “Bacteria: • Escherichia coli,”

[6] = system: Bacteria and fungi (Escherichia coli, Pseudomonas aeruginosa, Staphylococcus aureus, Candida albicans, Aspergillus niger); assay: PET, overall compliance with European and U.S. pharmacopoeia criteria; format: cell-based; details: for Efficacy on the microorganisms as a whole / spectrum of efficacy: additive in standard emulsion; for USP criteria / Bacteria: European pharmacopoeia criteria: 30% by mass in an aqueous solution, without ethanol; for Bacteria: European pharmacopoeia criteria: bacteria only; for Solutions providing antimicrobial protection, Pharma Europe: EtOH concentration / Solutions providing antimicrobial protection, Pharma USP: EtOH concentration: ethanol combined with the humectant; for Solutions providing antimicrobial protection, Pharma Europe: EtOH concentration / Solutions providing antimicrobial protection, Pharma USP: EtOH concentration / Solutions providing antimicrobial protection, Pharma Europe: humectant concentration / Solutions providing antimicrobial protection, Pharma USP: humectant concentration: lotion-type aqueous solution, no preservative; for Solutions providing antimicrobial protection, Pharma Europe: humectant concentration / Solutions providing antimicrobial protection, Pharma USP: humectant concentration: humectant combined with ethanol; for Ethanol concentration to meet European pharmacopoeia criteria A: reduced from 25%; for Ethanol concentration to meet the USP criteria: reduced from 15%
From the text: A particular problem that must be solved by the invention is that of effectively protecting a pharmaceutical topical composition while at the same time meeting the criteria required by the European and U.S. pharmacopoeias. This is because, since the purpose of the pharmaceutical composition is to become a pharmaceutical product with a marketing authorization, it is imperative for the composition according to the invention to meet these criteria. In order to verify this point and to determine the antimicrobial action of the various mixtures of excipients according to the invention, a test protocol, known as the PET (Preservative Efficacy Test), exists. The PET comprises artificially inoculating the compositions with a known number of microorganisms, and then determining the decrease in the latter in the compositions tested, at given times. The protocol of this test is set up in order to abide by the recommendations of the European and U.S. pharmacopoeias. The test and also the recommendations of the European and U.S. pharmacopoeias are described in Example 1 to follow. The mixture of excipients as preservatives, described herein, should therefore meet the criteria of these pharmacopoeias in the PET.
This test comprises artificially contaminating aliquots of formulation by means of a calibrated inoculum of specific microorganisms and incubating the same at precise temperatures. Samples are taken from the contaminated aliquots at given time intervals in order to count the microorganisms.
It also makes it obligatory to study the reductions in population of the microorganisms introduced into the formulation according to two acceptability criteria.
Since the A criteria are the most strict, it are […] generally required that they be met.
In justified cases, when the A criteria cannot be complied with, for example owing to an increase in the risk of adverse reactions, the B criteria, which are less drastic, apply.
NI (Non-Increase) signifies that there must not be an increase in the number of microorganisms.
It imposes logarithmic reductions in the population of microorganisms which are different than that of the European pharmacopoeia.

Aspergillus niger = details: cited from earlier work
Candida albicans = details: cited from earlier work
microorganisms = details: J. J. Kabara; cited from earlier work

## O.O.O=C([O-])CN(CCN(CC(=O)O)CC(=O)O)CC(=O)[O-].[Na+].[Na+] [EDTA, Disodium EDTA Dihydrate]
[1]
  Moulds, Aspergillus Niger: −
[2]
  Gram− bacterium, Esoherichia coli: −
[3]
  Gram+ bacterium, Staphylococcus aureus: −
[4]
  Yeast, Candida albicans: −
[5]
  Gram− bacterium, Pseudomonas aeruginosa: ++
  Inhibition of Pseudomonas aeruginosa, criteria met: meeting European pharmacopoeia criteria A

## CCCCCCCCCCCCCCCC(=O)OC[C@H](O)[C@H]1OC(=O)C(O)=C1O [Ascorbyl palmitate]
[1]
  Moulds, Aspergillus Niger: −
[6]
  Efficacy on the microorganisms as a whole / spectrum of efficacy: bactericidal
[2]
  Gram− bacterium, Esoherichia coli: +
[3]
  Gram+ bacterium, Staphylococcus aureus: ++
[4]
  Yeast, Candida albicans: −
[5]
  Gram− bacterium, Pseudomonas aeruginosa: ++

## O=C1O[C@H]([C@@H](O)CO)C([O-])=C1O.[Na+] [Sodium ascorbate]
[1]
  Moulds, Aspergillus Niger: −
[2]
  Action on Escherichia coli, criteria met: meeting the USP criteria
  Gram− bacterium, Esoherichia coli: +
[3]
  Action on Staphylococcus aureus, criteria met: meeting European pharmacopoeia criteria A
  Gram+ bacterium, Staphylococcus aureus: ++
[4]
  Yeast, Candida albicans: −
[5]
  Gram− bacterium, Pseudomonas aeruginosa: −

## OCC(O)CO [glycerol]
[6]
  USP criteria: does not meet
  Bacteria: European pharmacopoeia criteria: meet only European pharmacopoeia criteria B for bacteria
  Solutions providing antimicrobial protection, Pharma Europe: EtOH concentration: starting from 15%
  Solutions providing antimicrobial protection, Pharma USP: EtOH concentration: starting from 5% EtOH
  Solutions providing antimicrobial protection, Pharma Europe: humectant concentration: starting from 5%
  Solutions providing antimicrobial protection, Pharma USP: humectant concentration: starting from 10%
[6]; with 5% by mass of glycerol
  Ethanol concentration to meet European pharmacopoeia criteria A: 15%
[6]; with 10% by mass of glycerol
  Ethanol concentration to meet the USP criteria: 5%

## Cc1cc(C(C)(C)C)c(O)c(C(C)(C)C)c1 [BHT, butylhydroxytoluene]
[1]
  Moulds, Aspergillus Niger: −
[2]
  Gram− bacterium, Esoherichia coli: −
[3]
  Gram+ bacterium, Staphylococcus aureus: −
[4]
  Yeast, Candida albicans: −
[5]
  Gram− bacterium, Pseudomonas aeruginosa: −

## COC(=O)c1ccc(O)cc1 [methylparaben]
Aspergillus niger
  Concentration that makes it possible to inhibit Aspergillus niger: 1000 ppm
Candida albicans
  Concentration that makes it possible to inhibit Candida albicans: 1000 ppm

## Tocopherol
[1]
  Moulds, Aspergillus Niger: −
[6]
  Efficacy on the microorganisms as a whole / spectrum of efficacy: do not have a significant efficacy
[2]
  Gram− bacterium, Esoherichia coli: −
[3]
  Gram+ bacterium, Staphylococcus aureus: −
[4]
  Yeast, Candida albicans: −
[5]
  Gram− bacterium, Pseudomonas aeruginosa: −

## CCCOC(=O)c1ccc(O)cc1 [propylparaben]
Aspergillus niger
  Concentration that makes it possible to inhibit Aspergillus niger: 250 ppm
Candida albicans
  Concentration that makes it possible to inhibit Candida albicans: 250 ppm

## CCCOC(=O)c1cc(O)c(O)c(O)c1 [Propyl gallate]
[1]
  Moulds, Aspergillus Niger: −
[2]
  Gram− bacterium, Esoherichia coli: −
[3]
  Gram+ bacterium, Staphylococcus aureus: −
[4]
  Yeast, Candida albicans: −
[5]
  Gram− bacterium, Pseudomonas aeruginosa: ++
  Inhibition of Pseudomonas aeruginosa, criteria met: meeting European pharmacopoeia criteria A

## CC(O)CO (centres unmarked) [PG, Propylene glycol]
[1]; humectant alone, without ethanol
  Action on fungi, in particular Aspergillus niger: does not ensure a decrease in these microorganisms
[6]
  USP criteria: makes it possible to meet
  Bacteria: European pharmacopoeia criteria: meeting European pharmacopoeia criteria A
  Solutions providing antimicrobial protection, Pharma Europe: EtOH concentration: starting from 15%
  Solutions providing antimicrobial protection, Pharma USP: EtOH concentration: starting from 0% EtOH
  Solutions providing antimicrobial protection, Pharma Europe: humectant concentration: starting from 5% PG
  Solutions providing antimicrobial protection, Pharma USP: humectant concentration: starting from 30% PG
[6]; with 10% of PG
  Ethanol concentration to meet European pharmacopoeia criteria A: 15%

## CCO [ethanol]
microorganisms
  Ethanol concentration starting from which proliferation of microorganisms can be prevented: ≥ 25 % (v/v)
[6]; ethanol/water, bacteria
  Ethanol concentration in the aqueous mixture from which the bactericidal action meets European pharmacopoeia criteria A and the USP criteria: ≥ 15%
[6]; ethanol/water, fungi
  Ethanol concentration at which the fungicidal action meets the requirements for all the pharmacopoeias: 25%

## Polyethylene Glycol 400 [PEG 400]
[6]
  Solutions providing antimicrobial protection, Pharma Europe: EtOH concentration: starting from 10%
  Solutions providing antimicrobial protection, Pharma USP: EtOH concentration: starting from 5% EtOH
  Solutions providing antimicrobial protection, Pharma Europe: humectant concentration: starting from 20%
  Solutions providing antimicrobial protection, Pharma USP: humectant concentration: starting from 20% PEG
[6]; with 20% by mass of PEG 400
  Ethanol concentration to meet the USP criteria: 5%
  Ethanol concentration to meet European pharmacopoeia criteria A: 10%
